IC50 and inhibition data for 4 molecules are collected here from ChEMBL document CHEMBL4665626, “Excellent antitumor and antimetastatic activities based on novel coumarin/pyrazole oxime hybrids” (Eur J Med Chem, 2019).

Molecules are shown by their SMILES. Structures can show the parent of a compound that is named as a salt. Active and inactive are the calls of the source. No cut-off for these calls is given here. Where only a bound is given, the exact number is not on record here.

In one assay the test system is HepG2. Description: Antiproliferative activity against human HepG2 cells assessed as reduction in cell viability incubated for 72 hrs by MTT assay. Format: functional, cell-based. The settings on record: HepG2, 72 h.
The nature of assay [1]: Antiproliferative activity against human NCI-H1299 cells assessed as reduction in cell viability incubated for 72 hrs by MTT assay. Format: functional, cell-based. The conditions noted are these: NCI-H1299, 72 h. Background: Tetrazolium assays rely on reduction of a dye to a coloured formazan, in cell work by metabolically active cells.
A further assay relates to U-87 MG. The experiment in a line: Antiproliferative activity against human U87 cells assessed as reduction in cell viability incubated for 72 hrs by MTT assay. The format is functional, cell-based, U-87MG ATCC.
The test system of assay [2] is SMMC-7721. The experiment in a line: Antiproliferative activity against human SMMC-7721 cells assessed as reduction in cell viability incubated for 72 hrs by MTT assay. The settings on record: SMMC-7721, 72 h. Format: functional, cell-based.
The subject of assay [3] is SMMC-7721. The experiment in a line: Inhibition of epithelial-mesenchymal transition in human SMMC-7721 cells assessed as decrease in TGF-beta1-induced MMP9 expression at 0.5 uM incubated for 48 hrs by immunofluorescence staining based laser-scanning confocal microscope. Format: functional, cell-based.
Assay [4] has as its system SMMC-7721. The experiment in a line: Inhibition of epithelial-mesenchymal transition in human SMMC-7721 cells assessed as decrease in TGF-beta1-induced MMP9 expression at 0.5 uM incubated for 48 hrs by Western blot analysis. Format: functional, cell-based. (A western blot detects proteins with antibodies after separation by electrophoresis.)
Assay [5] relates to SMMC-7721. The experiment in a line: Inhibition of epithelial-mesenchymal transition in human SMMC-7721 cells assessed as increase in TGF-beta1 reduced E-cadherin expression at 0.5 uM incubated for 48 hrs by Western blot analysis. The format is functional, cell-based.
Assay [6] concerns SMMC-7721. Description: Inhibition of TGF-beta1-induced cell migration in human SMMC-7721 cells at 0.5 uM incubated for 24 hrs by wound healing assay relative to control. Format: functional.
Assay [7] relates to SMMC-7721. Description: Inhibition of TGF-beta1-induced cell invasion in human SMMC-7721 cells at 0.5 uM incubated for 2 days by crystal violet staining based matrigel transwell migration assay. The format is functional. The conditions noted are these: time 2.0 day.
Assay [8] deals with SMMC-7721. Description: Inhibition of epithelial-mesenchymal transition in human SMMC-7721 cells assessed as decrease in TGF-beta1-induced vimentin expression at 0.5 uM incubated for 48 hrs by immunofluorescence staining based laser-scanning confocal microscope. Format: functional, cell-based.
For assay [9], the system named is SMMC-7721. Description: Inhibition of epithelial-mesenchymal transition in human SMMC-7721 cells assessed as increase in TGF-beta1 reduced E-cadherin expression at 0.5 uM incubated for 48 hrs by Immunofluorescence staining based laser-scanning confocal microscope. Format: functional, cell-based.
Assay [10] relates to SMMC-7721. Description: Inhibition of epithelial-mesenchymal transition in human SMMC-7721 cells assessed as decrease in TGF-beta1-induced vimentin expression at 0.5 uM incubated for 48 hrs by Western blot analysis. Format: functional, cell-based.

Usually IC50 stands for the concentration that gives 50% inhibition. For `Cc1nn(C)c(Oc2cccc(C(F)(F)F)c2)c1/C=N\OCCCCCCOc1cc2oc(=O)cc(C)c2cc1Cl`, the IC50 in the assay with HepG2 is more than 25 µM; in assay [1], more than 25 µM; with U-87 MG, 23.4 µM; with SMMC-7721 [2], 24.8 µM.

As for `O=c1[nH]cc(F)c(=O)[nH]1` [FLUOROURACIL], the 50% inhibitory concentration (IC50) with HepG2 was 31.7 µM; in assay [1], 41.8 µM; in the assay with U-87 MG it was 45.3 µM.

Take `COc1cccc2c1C(=O)c1c(O)c3c(c(O)c1C2=O)C[C@@](O)(C(=O)CO)C[C@@H]3O[C@H]1C[C@H](N)[C@H](O)[C@H](C)O1` [DOXORUBICIN HYDROCHLORIDE]: the inhibition entry in the assay with SMMC-7721 [3], in the assay with SMMC-7721 [4], with SMMC-7721 [5], in the assay with SMMC-7721 [6], in the assay on SMMC-7721 [7] and with SMMC-7721 [8] was “Active” in each case. The inhibition result in the assay on SMMC-7721 [9] and with SMMC-7721 [10] was “Active” in each case. In addition, the values for the IC50 in the assay with HepG2 and with U-87 MG were 2.32 µM and 4.28 µM, respectively.

On to `Cc1nn(C)c(Oc2ccc(OC(F)(F)F)cc2)c1/C=N\OCCCCCCOc1cc2oc(=O)cc(C)c2cc1Cl`, for which the half-inhibitory concentration (IC50) with HepG2 was determined as 8.16 µM; in assay [1], 11.9 µM; in the assay on U-87 MG, 9.62 µM; with SMMC-7721 [2] it was 6.35 µM.
